Common to all, as to type: physicochemical
Data set [1] is described as follows: particle diameter of modified vesicles. To be noted: for average diameter: ultrasonicator (Example 5 series).
Data set [2] is described as follows: viscosity of vesicle dispersion on addition of calcium ion (rotating viscometer). To be noted: 5 mM calcium chloride. The procedure:
The stability of the vesicles was evaluated as below. The precipitate of the vesicles prepared by centrifuge was dispersed again into saline by a vortex mixer. To this sample, calcium chloride (as calcium ion) was added to be 5 mM, and the viscosity of the dispersion was measured with a rotating viscometer (Vismetron VS-AK). The viscosity of 5 cp was not changed by addition of the calcium ion.
To this dispersion, calcium chloride (as calcium ion) was added to be 5 mM, and the viscosity of the dispersion was measured with a rotating viscometer (Vismetron VS-AK).
To this dispersion, calcium chloride (as calcium ion) was added to be 5 mM, and the viscosity of the dispersion was measured with a rotating viscometer (Vismetron VS-AK). The viscosity of 5 cp was not changed by addition of the calcium ion. On the contrary, the dispersion of the vesicles prepared from powdery lipid mixture not containing DACOA (DPPC:cholesterol:distearylphosphatidic acid=10:9:0.9 in molar ratio) aggregated immediately on addition of calcium ion because of negative charge on the surface of the vesicle, causing the viscosity rise up to 11 cp.
The stability of the dispersion of the DOLG-modified vesicles having adjusted particle diameters was evaluated by addition of 5 mM calcium chloride and observing the viscosity change. The viscosity was measured at 37° C. by a rotating viscometer. […] On the contrary, a dispersion of unmodified vesicles prepared from a powdery lipid mixture containing no DOLG (DPPC:cholesterol:stearic acid=7:7:2 in molar ratio) caused immediate aggregation of the vesicles on addition of calcium ion in the same manner as above because of the negative charge on the surface of the vesicle, and the viscosity increased up to 11 cp. Accordingly, the sufficient effect of the DOLG, a vesicle stabilizer of the present invention, was confirmed in inhibiting the aggregation of vesicles by calcium ion.

The nature of data set [3]: dispersion stability: turbidity increase at 500 nm, standing at 25 °C for 3 days.
Data set [4] can be described thus: turbidity increase, standing at 4 °C for 24 hours. As to conditions: for turbidity increase rate relative to unmodified DPPC vesicle dispersion (100%): Table 3 / Example 11 series.
The nature of data set [5]: introduction ratio into the vesicle (phenol-sulfuric acid method). As to conditions: 2 mol % modifier; for introduction ratio: 4 °C, 24 hours. How it is done: The ratio of introduction of the stabilizer into the vesicles is determined by treating the dispersion of the vesicles by gel filtration or ultracentrifuge to remove the superfluous stabilizer which has not been introduced into the vesicles, and quantitatively determining saccharide in respective fractions by a phenol-sulfuric acid method. The stabilizer of the present invention, when employed in an amount of from 2 to 10 mol %, is introduced into the vesicles in a ratio of 90% or more.
The stability of the vesicle dispersion which had been passed through the 0.05 μm filter was evaluated by measuring the change of absorbance (turbidity) at 500 nm with time on standing at room temperature by means of a UV-visible light spectrophotometer.
2.4 mg of DOMG prepared in the same manner as in Example 11 was dissolved in 1 ml of chloroform. This solution was mixed with a solution of 100 mg of DPPC in 5 ml of chloroform, thereby DOMG being 2 mol % of DPPC. The solution mixture was evaporated by means of an evaporator to form a thin film on the inside wall of an eggplant-shape flask. Then 10 ml of pure water was added thereto so as to obtain a concentration of 1.0% by weight of the vesicles. The mixture was stirred with glass beads by means of a vortex mixer, and subsequently treated by an extruder to prepare a dispersion of DOMG-modified DPPC vesicles having controlled diameters of particles. A portion of the resulting dispersion was diluted to a fivefold volume with pure water to prepare a dispersion having vesicle concentration of 0.2% by weight.
The two dispersions of the DOMG-modified vesicles having concentrations of 1.0% by weight and 0.2% by weight were left standing at 4° C. for 24 hours, and were ultracentrifuged (300000 G, 60 minutes). The free DOMG in the supernatant was determined by a phenol-sulfuric acid method, and therefrom the ratio of introduction DOMG to the vesicles was calculated.
As the results, the introduction ratios were 94.3%, and 77.0% respectively at the vesicle concentrations of 1.0% by weight and 0.2% by weight. The results are shown in Table 4 together with the results of Comparative Examples 6 and 7 described later in which an oligosaccharide derivative was employed.

[6] abbreviates: mixed lipid vesicles, 0.2 μm filter by extruder.
Setting [7] is: Table 1 / Example 5 series, about 5 mol % modifier.
The mark [8] stands for this setting: DPPC vesicle, about 5 mol % modifier.
The mark [9] stands for this setting: Table 2 / Example 8 series, 5 mol % modifier.
The mark [10] stands for this setting: DPPC vesicle, 5 mol % modifier (Example 8 series).

We go through nine molecules from patent publication US5472951A, “Stabilizer for phospholipid vesicles” (Chiba Flour Milling Co., Ltd., priority 1992, dated 1995).

In the case of `CCCCCCCC/C=C\CCCCCCCCNC(=O)[C@H](NC(C)=O)[C@@H](O)[C@H](O[C@@H]1O[C@H](CO)[C@@H](O)[C@H](O)[C@H]1NC(C)=O)[C@H](O)CO` [DACOA, di-N-acetylchitobiose oleylamine], the average particle diameter in data set [1] (setting [6]) amounted to 200 nm. Moreover, in data set [2], the “viscosity change on addition of calcium ion (in words)” value was “not changed”. Further, the “viscosity of the dispersion with calcium ion” value (from here on “viscosity … with calcium ion”) in data set [2] (Vismetron VS-AK) amounted to 5 cp.
Consider “Maltopentaose dipalmitate [MPDP, reference compound]”, for which, in data set [3] (setting [7]), the “turbidity increase rate relative to unmodified DPPC vesicle dispersion (100%)” value amounted to 65.4%. In data set [1] (setting [8]), this molecule showed an average diameter of 38±8 nm.
Regarding `CCCCCCCCCCCCCCCCNC(=O)[C@H](O)[C@@H](O)[C@H](O[C@H]1O[C@H](CO)[C@@H](O[C@H]2O[C@H](CO)[C@@H](O[C@H]3O[C@H](CO)[C@@H](O[C@H]4O[C@H](CO)[C@@H](O)[C@H](O)[C@H]4O)[C@H](O)[C@H]3O)[C@H](O)[C@H]2O)[C@H](O)[C@H]1O)[C@H](O)CO` [MPCA, maltopentaose cetyl amide], the “turbidity increase rate relative to unmodified DPPC vesicle dispersion (100%)” value in data set [3] (setting [7]) was 6.3%; in data set [3] (setting [9]) it was 12.7%; in data set [3] (Table 2 / Example 8 series, 5 mol % modifier, listed as MCPA), 10.3%. Moreover, the “turbidity rise / aggregation inhibiting effect (in words)” value in data set [3] (about 5 mol % modifier) is reported as “little rise in turbidity”. The same molecule yielded an average particle diameter in data set [1] (setting [10]) of 32±9 nm. Also, in data set [1] (setting [8]), the average diameter stood at 32±7 nm.
As to dioctadecyl lactosyl glycerol [DOLG], in data set [2], the “viscosity change on addition of calcium ion (in words)” value is given as “without viscosity increase”. Besides, the “viscosity … with calcium ion” value in data set [2] (37 °C, shear rate 1.15 sec^-1) was 5 cp.
As for `CCCCCCCCCCCCCCCCCCOCC(COC1O[C@H](CO)[C@@H](O[C@H]2O[C@H](CO)[C@@H](O)[C@H](O)[C@H]2O)[C@H](O)[C@H]1O)OCCCCCCCCCCCCCCCCCC` (stereo partly drawn) [DOMG, 1,2-di-octadecyl-O-α(β)-maltosyl-glycerol], the particle diameter in data set [1] (DPPC vesicle, about 5 mol % modifier, extruder 0.05 μm (Example 11)) worked out at 35±15 nm. Further, the “increase of the turbidity depending on amount of modifier (order)” value in data set [4] (5-20 mol %) is recorded as 5 mol %>10 mol %>15 mol %>20. The “vesicle stabilization effect (in words)” value in data set [4] (5 mol % modifier, 24 hours) is on record as “not so effective”. The “turbidity increase rate relative to unmodified DPPC vesicle dispersion (100%)” value in data set [4] (5 mol % modifier, 24 hours) turned out to be 45.5%; in data set [4] (10 mol % modifier, 24 hours), 28.9%; in data set [4] (15 mol % modifier, 24 hours) it was 16.0%; in data set [4] (20 mol % modifier, 24 hours), 11.2%. For the same molecule, the introduction ratio in data set [5] (vesicle concentration 0.2 wt %) is on record as 77.0%; in data set [5] (vesicle concentration 1.0 wt %) it was 94.3%.
As to `CCCCCCCCCCCCCCCCNC(=O)[C@H](O)[C@@H](O)[C@H](O[C@H]1O[C@H](CO)[C@@H](O)[C@H](O)[C@H]1O)[C@H](O)CO` [MCA, maltose cetyl amide], the “increase of the turbidity depending on amount of modifier (order)” value in data set [3] (5-25 mol %) is 5 mol %>10 mol %>15 mol %>20 mol % ≤25 mol %. The “turbidity increase rate relative to unmodified DPPC vesicle dispersion (100%)” value in data set [3] (setting [9]) is listed as 47.8%; in data set [3] (Table 2 / Example 8 series, 10 mol % modifier), 32.5%; in data set [3] (Table 2 / Example 8 series, 15 mol % modifier), 19.9%; in data set [3] (Table 2 / Example 8 series, 20 mol % modifier), 15.6%; in data set [3] (Table 2 / Example 8 series, 25 mol % modifier), 17.2%. Further, the average particle diameter in data set [1] (setting [10]) is on record as 41±19 nm; in data set [1] (DPPC vesicle, 10 mol % modifier (Example 8 series)), 35±13 nm; in data set [1] (DPPC vesicle, 20 mol % modifier (Example 8 series)), 36±10 nm. For the same molecule, in data set [1] (DPPC vesicle, 15 mol % (MCA also 25 mol %) modifier), the “average particle diameter (in words)” value was “Nearly the same diameters”.
For “Dioctadecylmaltopentaosyl glycerol [DOMPG]”, in data set [4] (5 mol % modifier, 24 hours), the “turbidity increase rate relative to unmodified DPPC vesicle dispersion (100%)” value turned out to be 12.1%. In data set [5], the “introduction ratio in comparison with DOMG (in words)” value is listed as “low in comparison with that of DOMG”. The introduction ratio came out at 70.9% in data set [5] (vesicle concentration 0.2 wt %) and 83.2% in data set [5] (vesicle concentration 1.0 wt %).
For “Maltopentaose monopalmitate [MPMP, reference compound]”, the “turbidity increase rate relative to unmodified DPPC vesicle dispersion (100%)” value in data set [3] (setting [7]) is reported as 12.7%; in data set [3] (setting [9]) it was 11.2%; in data set [4] (5 mol % modifier, 24 hours), 13.5%. Moreover, the average particle diameter in data set [1] (setting [10]) was 34±12 nm. Also, the average diameter in data set [1] (setting [8]) is 34±12 nm. Besides, in data set [5], the “introduction ratio in comparison with DOMG (in words)” value is “low in comparison with that of DOMG”. Further, the introduction ratio amounted to 48.5% in data set [5] (vesicle concentration 0.2 wt %) and 75.8% in data set [5] (vesicle concentration 1.0 wt %).
In the case of `CCCCCCCCCCCCCCCCCCNC(=O)[C@H](O)[C@@H](O)[C@H](O)[C@H](O)CO[C@H]1O[C@H](CO[C@H]2O[C@H](CO[C@H]3O[C@H](CO[C@H]4O[C@H](CO[C@H]5O[C@H](CO)[C@@H](O)[C@H](O)[C@H]5O)[C@@H](O)[C@H](O)[C@H]4O)[C@@H](O)[C@H](O)[C@H]3O)[C@@H](O)[C@H](O)[C@H]2O)[C@@H](O)[C@H](O)[C@H]1O` [IHSA, Isomaltohexose stearylamide], in data set [1] (setting [6]), the average particle diameter is reported as 200 nm. For the same molecule, in data set [2], the “inhibition of aggregation of vesicles by calcium ion (in words)” value is given as “inhibited nearly completely” and the “viscosity change on addition of calcium ion (in words)” value is reported as “not changed at all”. Besides, in data set [2] (Vismetron VS-AK), the “viscosity … with calcium ion” value was 5 cp.
